Data taken from patent publication US9884084B2, “Bone loss preventing and bone regeneration or bone formation promoting pharmaceutical composition comprising muramyl dipeptide” (SNU R&DB FOUNDATION, priority 2012, dated 2018).

Tests used:
[1] = test system: Runx2; assay: 6XOSE/Luc luciferase reporter assay of Runx2 transcriptional activity in MC4 cells; format: cell-based
Procedure: Further to examine whether the increased expression of Runx2, which is a transcription factor, affects the expression of other genes regulated by Runx2, the following experiments were performed. For this, MC4 cells were seeded onto each well of a 96 well plate at the concentration of 20,000 cells/well and the cells were transfected with a plasmid 6XOSE/Luc reporter vector (Journal of Biological Chemistry. 285: 3568-3574 (2010)) which expresses luciferase gene under the control of osteocalcin using Lipofectamin® (Life technologies, Inc) according to the manufacturer's instruction. The promoter in the plasmid contains […] to each of which Runx2 binds. By binding of Runx2 to the motif, the expression of luciferase increases. After 16 hrs after the transfection, MDP at the concentration as indicated in FIG. 3 was added to the cells. After 24 hrs, the cells were lysed and the luciferase activity was measured using Luciferase detection kit (Promega, USA) according to the manufacturer's instruction to quantify the mRNA level of osteocalcin gene, which is affected by Runx2.
In addition to MDP as used in Example 2-1, as a derivative thereof, M-TriLYS (MurNAc-Ala-D-isoGln-Lys, N-acetylmuramyl-L-alanine-D-isoglutamine-lysine) and 6-O-stearoyl-N-acetylmuramyl-L-alanyl-D-isoglutamine (L18-MDP) were used to examine the effect of the derivatives on the expression of Runx2 at transcription level. M-TriLYS is a muropeptide obtainable from peptidoglycans of lactobacillus or salivarius and contains in its structure muramyl dipeptide. L18-MDP is a MDP derivative containing C18 fatty acid.

[2] = test system: WT C57BL/6 (B6) mice; assay: Histological observation (H&E) of mouse femur; format: in vivo; conditions: 1.25 mg/kg i.p. twice, vs physiological saline control; FIG. 6
Procedure: (§1) To each mouse, 1.25 mg/kg of MDP prepared as described in Example 1 was administered twice with a 4 day interval by intraperitoneal injection. Physiological saline was used as a control. The second injection was given 4 days after the first injection and after 3 days the mice were sacrificed and used for bone volume analysis.
The femur used for the analysis of bone volume in Example 3-3 was used for a histological observation. For this, the femur was demineralized in 10% EDTA for 7 days and washed with running water for 12 hrs in a tissue capsule. After that, the femur was treated with alcohol and xylene and embedded in paraffin, from which sections having a thickness of 4 μm were prepared. The sections were then placed on a slide glass and deparaffinized at 65° C. for 30 min and treated with Hematoxylin and Eosin according to the conventional method.
The slides were then examined with a light microscope to observe the bone formation.

[3] = test system: osteoblast; assay: OPG and RANKL regulation in the osteoblast (data not shown); format: cell-based
[4] = test system: Runx2; assay: Immunoblot of Runx2 protein in MC4 cells; format: cell-based; conditions: 24 hrs, β-actin loading control, FIG. 2 lower part
Procedure: Also to examine the effect at the protein level, whole cell extract was prepared from the cells treated with MDP for 24 hrs as described above, and 40 μg of extract was used for SDS-PAGE electrophoresis. Then the gel was transferred to a PVDF membrane and immunoblot was performed using an antibody specific to Runx2 (Abcam, USA). […] The β-actin was used as a loading control.

[5] = test system: mouse model treated with GST-RANKL; assay: GST-RANKL induced bone loss mouse model, microCT bone volume; format: in vivo; conditions: pretreatment 1.25 mg/kg i.p. twice, then GST-RANKL 1 mg/kg i.p. three times; vs controls not pretreated; FIG. 8
Procedure: Muramyl dipeptide was administered to a mouse by an intraperitoneal injection two times with four day interval between the administration at the concentration of 1.25 mg/kg. After 3 days of the administration, GST-RANKL recombinant protein was intraperitoneally administered at the concentration of 1 mg/kg three times with a 24 hr interval between the administrations, The bone volume was analyzed at 1 day after the last administrated with GST-RANKL. The recombinant protein was prepared using a RANKL expression vector, pGEX-GST-RANKL (J. Clin Invest. 106:1481-1488 (2000)), which was expressed in E. coli and the protein was purified using a sepharose gel attached with glutathione (glutathione-sepharose gels, Sigma-Aldrich). The purified protein was then treated with Detoxi-gel endotoxin removing gel (Thermo Scientific, USA) to remove endotoxin and used for the experiment. Seven days after the administration, mice were sacrificed and the bone volume was measured using a microCT. As controls, mice treated only with physiological saline, GST-RANKL or physiological saline and GST-RANKL in a consecutive order were used.

[6] = test system: osteoblast cell line MC4 cells (MC3T3-E1 Subclone 4); assay: Osteoblast differentiation by alkaline phosphatase (ALP) staining, MC4 cells; format: cell-based; conditions: 0.1, 1 and 10 μg/ml MDP, 5 days, differentiation medium; FIG. 1
Procedure: N-acetylmuramyl-L-Alanyl-D-Isoglutamine commercially available from Invivogen Inc. was dissolved in endotoxin free purified water to make a solution of 5 mg/ml. To assess the effect of muramyl dipeptide on the differentiation of osteoblast, osteoblast cell line MC4 cells (ATCC CRL-2593:MC3T3-E1 Subclone 4) were incubated in an ascorbic acid free-αMEM medium containing 10% fetal bovine serum, 50 unit/ml penicillin, 50 μg/ml streptomycin at 37° C. under 100% humidity and 5% CO2 atmosphere. The medium was changed every 3 days.
Then MC4 cells were seeded onto each well of a 48 well plate at the concentration of 20,000 cells/well and then after 16 hrs, each well was treated for 5 days with 400 μl of 0, 0.1, 1 and 10 μg/ml of MDP as prepared above in the differentiation medium (50 μg/ml ascorbic acid and 10 mM beta-glycerophosphate containing αMEM), during which half of the medium was changed twice with the differentiation medium. The effect on the differentiation was analyzed using alkaline phosphatase (ALP) staining. Results are shown in FIG. 1, in which the effect on the differentiation was determined by the number of cells showing red-purple color as well as the intensity of the color. […] Each experiment was repeated at least 3 times.

[7] = test system: Runx2; assay: RT-PCR of Runx2 mRNA in MC4 cells; format: cell-based; conditions: 6 hrs, normalized relative to β-actin, FIG. 2 upper part
Procedure: Then, total mRNA was extracted from the cells and incubated with random primer at 70° C. for 5 min. After that reverse transcriptase, buffer for RT and dNTPs were added to the reaction mixture and incubated at 42° C. for 1 hr to synthesize cDNA, which was then used as a template for PCR to amplify Runx2 using specific primers as described in Table 1 and using the following condition: cDNA was initially denatured at 94° C. for 5 min followed by 25 cycles at 95° C. for 40 s, 59° C. for 40 s, and 72° C. for 40 s and final extension for 5 min at 72° C. […] The results were normalized relative to β-actin data.

[8] = test system: WT C57BL/6 (B6) mice; assay: Bone volume of mouse femur by microCT after MDP administration; format: in vivo
Procedure: Six-week-old WT C57BL/6 (B6) mice were purchased from Orient Company Ltd (Seoul, Korea). The animals were maintained at a controlled temperature (21±1° C.) and humidity (55±1%) with a 12/12-h light-dark cycle without any restriction of food and water. All animal experiments were performed following the protocol approved by the Institutional Animal Care and Use Committee of CRISNUH.
as §1
A right femur was removed from the sacrificed mouse and stripped of the muscle. The excised femur was then fixed in 10% of neutral formalin for one day at the least, which was then analyzed for bone volume using microCT. […] In FIG. 5, BV/TV=Bone volume/Tissue volume=% bone volume.

[9] = test system: RANKL-primed osteoclast precursors; assay: Osteoclast differentiation from RANKL-primed osteoclast precursors, TRAP staining; conditions: 20 ng/ml M-CSF, 3 days; FIG. 7 right graph
Procedure: Bone marrow cells (BMs) were isolated from the long bones of mouse and were cultured in α-MEM supplemented with 10% FBS, 100 U/ml penicillin and 100 μg/ml streptomycin, and 2 ng/ml M-CSF for 1 day. Suspended cells were differentiated into BMMs with 20 ng/ml M-CSF for 3 days. […] To make RANKL-primed osteoclast precursors, the BMMs were stimulated with 20 ng/ml mouse RANKL for 48 h. The BMMs were incubated with 20 ng/ml M-CSF in the presence or absence of MDP for additional 3 days.
The differentiation was determined by tartrate resistant acid phosphatase (TRAP) staining using Leukocyte acid phosphate-staining kit (Sigma-Aldrich Chemical, USA) according to the manufacturer's instruction. After the staining, TRAP-positive multinucleated cells with at least 3 nuclei were enumerated as mature osteoclasts with an inverted phase-contrast microscope and results are shown in FIG. 7.

[10] = 1.25 mg/kg i.p. twice, vs physiological saline control, FIG. 5

Question: What does the source list for “6-O-stearoyl-N-acetylmuramyl-L-alanyl-D-isoglutamine [L18-MDP]”?
Answer: expression of Runx2 at the transcriptional level (reporter) ([1]; FIG. 3B): increased the expression of Runx2 at the transcriptional level; activity on Runx2 compared with MDP ([1]; higher than that of MDP, FIG. 3B): 10 times

Question: How did the “expression of Runx2 at the transcriptional level (reporter)” value ([1]; FIG. 3B) turn out when “N-acetylmuramyl-L-alanine-D-isoglutamine-lysine [MTnLYS]” was run?
Answer: increased the expression of Runx2 at the transcriptional level

Question: For “N-acetylmuramyl-L-Alanyl-D-Isoglutamine [MDP]”, which “spongy bone in femur sections (H&E)” value [2] is on record?
Answer: more spongy bone was observed

Question: And the “Osteoprotegerin (OPG) regulation in the osteoblast” value [3]?
Answer: up-regulation

Question: What about the “RANKL regulation in the osteoblast” value [3] of the same substance?
Answer: down-regulation

Question: And the “indirect effect on osteoclast differentiation” value ([3]; through OPG and RANKL in the osteoblast)?
Answer: indirectly alleviated osteoclast differentiation

Question: And the “expression of Runx2 protein” value [4]?
Answer: increased the expression of Runx2 protein

Question: And the “bone loss due to GST-RANKL (bone volume, microCT)” value [5]?
Answer: reduced

Question: And the “differentiation of MC4 (ALP staining)” value [6]?
Answer: increased in a concentration dependent manner

Question: And the “mRNA expression of Runx2” value [7]?
Answer: increased after MDP treatment in a concentration dependent manner

Question: And the “bone volume (microCT 3D image)” value ([8]; 1.25 mg/kg i.p. twice with 4 day interval, right femur, vs physiological saline, FIG. 4)?
Answer: increase in bone volume

Question: What about the “Trabecular bone volume (BV/TV)” value [8, 10] of the same substance?
Answer: increased statistically significantly

Question: And the “Trabecular number (Tb.N)” value [8, 10]?
Answer: increased statistically significantly

Question: And the “Trabecular thickness (Tb.Th)” value [8, 10]?
Answer: increased statistically significantly

Question: And the “expression of Runx2 at the transcriptional level (reporter)” value ([1]; FIG. 3B)?
Answer: increased the expression of Runx2 at the transcriptional level

Question: And the “luciferase activity (transcription of osteocalcin, affected by Runx2)” value ([1]; MC4 cells, 24 hrs after addition, FIG. 3A)?
Answer: increased the transcription of osteocalcin

Question: What about the “osteoclast differentiation from RANKL-primed osteoclast precursors” value [9] of the same substance?
Answer: did not affect
